# Counter-ions that a name gives are not always drawn.
# What was measured:
# [1] = test system: immobilized enzyme (MACA-ester hydrolase); assay: cleavage of MACA ester (R) with immobilized esterase; assay type: biochemical, Nocardia sp. ATCC 53492; details: within 6-8 hours; pH 6.8, 30° C.; 5 g substrate, 100 g moist immobilized enzyme
# Experimental: 2.5 g of R-ester hydrochloride are dissolved in 800 ml of 50 mM potassium phosphate solution, pH=6.8. 100 g of moist, immobilized enzyme are then added with stirring. The pH is kept at 6.8 and the temperature at 30° C. Further 1.25 g amounts of substrate are added after 2.5 h and after 41/4 h. In all, the mixture contains 5 g of MACA ester (R). The cleavage proceeds within the space of 6-8 hours to 95% conversion according to HPLC. The cleavage solution is separated from the enzyme and lyophilized. About 10 g of a white solid are obtained.
# [2] = test system: esterase according to the invention (MACA-ester hydrolase); assay: substrate specificity of the esterase according to the invention; assay type: biochemical
# Text: Following partial purification, the enzyme can be bound without difficulty, for example to the enzyme carrier VA-Epoxy-Biosynth®. The activity is normally determined by conversion of MACA-ester to MACA. HPLC or TLC is then employed for the quantitative evaluation of the amount of MACA that is formed.
# The following table contains further information concerning the substrate specificity of the esterase according to the invention: […]
# [3] = substrate concentration 1.59 mM, HEPES, pH 6.95
# [4] = substrate concentration 2.5 mM, phosphate buffer, pH 6.8
# [5] = substrate concentration 100 mM, relative to MACA ester pro J = 100
# [6] = substrate concentration 2.5 mM, MACA ester pro J = 100
Compound,Activity U/mg ([2]; substrate concentration 100 mM),Activity U/ml ([2]; substrate concentration 100 mM),"Activity % [2, 5]",also measured
COCC1=C(C(=O)O[C@H](C)OC(=O)C(C)(C)C)N2C(=O)[C@@H](N)[C@H]2SC1 [R-ester hydrochloride],–,–,–,conversion according to HPLC [1]: 95%
CC(OC(=O)C(C)(C)C)OC(=O)C(C)(C)C,–,–,–,"Activity U/mg ([2]; substrate concentration 50 mM): 3.5 U/mg; Activity U/ml ([2]; substrate concentration 50 mM): 1.4 U/ml; Activity % ([2]; substrate concentration 50 mM, relative to MACA ester pro J = 100): 4%"
"CC(=O)Oc1ccc([N+](=O)[O-])cc1 [p-Nitrophenyl acetate, p-nitrophenyl acetate]",–,–,–,"Activity U/mg [2, 3]: 76.0 U/mg; Activity U/ml [2, 3]: 30.4 U/ml; Activity % ([2]; substrate concentration 1.59 mM, HEPES, pH 6.95, relative to MACA ester pro J = 100): 86.4%; Activity U/mg [2, 4]: 108.75 U/mg; Activity U/ml [2, 4]: 43.5 U/ml; Activity % ([2]; substrate concentration 2.5 mM, phosphate buffer, pH 6.8, relative to MACA ester pro J = 100): 123.6%"
CCOC(=O)C(C)(C)C [Ethyl pivalate],42.75 U/mg,17.1 U/ml,48.6%,–
CCOC(=O)CC [Ethyl propionate],50 U/mg,20 U/ml,56.8%,–
"COCC1=C(C(=O)O[C@H](C)OC(=O)C(C)(C)C)N2C(=O)C(N)[C@@H]2SC1 (stereo partly drawn) [MACA ester pro J, (1R,S)-1-(2,2-dimethylpropionyloxy)-ethyl 7-amino-3-methoxymethyl-3-cephem-4-carboxylate]",–,–,–,"Activity U/mg ([2]; substrate concentration 2.5 mM): 87.75 U/mg; Activity U/ml ([2]; substrate concentration 2.5 mM): 35.2 U/ml; Activity % [2, 6]: 100%"
"COCC1=C(C(=O)O[C@H](C)OC(=O)C(C)(C)C)N2C(=O)C(N)[C@@H]2SC1 (stereo partly drawn) [MACA ester pro K, (1R,S)-1-(2,2-dimethylpropionyloxy)-ethyl 7-amino-3-methoxymethyl-3-cephem-4-carboxylate]",–,–,–,"Activity U/mg ([2]; substrate concentration 2.5 mM): 87.75 U/mg; Activity U/ml ([2]; substrate concentration 2.5 mM): 35.1 U/ml; Activity % [2, 6]: 99.7%"
"CCOC(=O)C(C)Cl (stereo not shown) [Ethyl 2-chloro-propionate, ethyl 2-chloropropionate]",75 U/mg,30 U/ml,85.2%,–
"CCOC(=O)C(C)N (racemic) [D,L-alanine ethyl ester]",40 U/mg,16 U/ml,45.5%,–

# Now from value to compound, other results behind:
Activity U/mg ([2]; substrate concentration 100 mM),Activity U/ml ([2]; substrate concentration 100 mM),"Activity % [2, 5]",Compound,also measured
93.75 U/mg,37.5 U/ml,106.5%,CCCC(=O)OCC(COC(=O)CCC)OC(=O)CCC [Tributyrin],–
92.75 U/mg,37.1 U/ml,105.4%,CC(=O)OCC(COC(C)=O)OC(C)=O [Triacetin],–
